Tests used:
HiBit-BRG1 = molecular target: T1, HiBit-BRG1 (Homo sapiens, UniProt P51532); experiment: HiBit-BRG1 cell-based degradation assay (Nano-Glo HiBiT Lytic Detection); conditions: HeLa cells expressing HiBit-BRG1 and LgBit, 24 h; for DC50: read-out: BRG1 HiBit Degradation IC50; for Dmax: read-out: BRG1 HiBit Degradation Maximum (%)
T1 construct: expressed in transfected cells
Summary of the method: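 Percent degradation derived from lytic HiBiT signal, normalized to DMSO-treated cells and to cells given 2 μM of a known BRM/BRG1 degrader. The HeLa line stably expressed HiBit-BRG1 and LgBit; treatment lasted 24 h at 5000 cells per well.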

HiBiT-BRM = molecular target: T2, HiBiT-BRM (Homo sapiens, UniProt P51531); experiment: HiBiT-BRM cell-based degradation assay (Nano-Glo HiBiT Lytic Detection); conditions: HeLa cells expressing HiBiT-BRM, 24 h; for DC50: read-out: BRM HiBit Degradation IC50
T2 construct: expressed in transfected cells
T2 sequence (P51531 whole entry): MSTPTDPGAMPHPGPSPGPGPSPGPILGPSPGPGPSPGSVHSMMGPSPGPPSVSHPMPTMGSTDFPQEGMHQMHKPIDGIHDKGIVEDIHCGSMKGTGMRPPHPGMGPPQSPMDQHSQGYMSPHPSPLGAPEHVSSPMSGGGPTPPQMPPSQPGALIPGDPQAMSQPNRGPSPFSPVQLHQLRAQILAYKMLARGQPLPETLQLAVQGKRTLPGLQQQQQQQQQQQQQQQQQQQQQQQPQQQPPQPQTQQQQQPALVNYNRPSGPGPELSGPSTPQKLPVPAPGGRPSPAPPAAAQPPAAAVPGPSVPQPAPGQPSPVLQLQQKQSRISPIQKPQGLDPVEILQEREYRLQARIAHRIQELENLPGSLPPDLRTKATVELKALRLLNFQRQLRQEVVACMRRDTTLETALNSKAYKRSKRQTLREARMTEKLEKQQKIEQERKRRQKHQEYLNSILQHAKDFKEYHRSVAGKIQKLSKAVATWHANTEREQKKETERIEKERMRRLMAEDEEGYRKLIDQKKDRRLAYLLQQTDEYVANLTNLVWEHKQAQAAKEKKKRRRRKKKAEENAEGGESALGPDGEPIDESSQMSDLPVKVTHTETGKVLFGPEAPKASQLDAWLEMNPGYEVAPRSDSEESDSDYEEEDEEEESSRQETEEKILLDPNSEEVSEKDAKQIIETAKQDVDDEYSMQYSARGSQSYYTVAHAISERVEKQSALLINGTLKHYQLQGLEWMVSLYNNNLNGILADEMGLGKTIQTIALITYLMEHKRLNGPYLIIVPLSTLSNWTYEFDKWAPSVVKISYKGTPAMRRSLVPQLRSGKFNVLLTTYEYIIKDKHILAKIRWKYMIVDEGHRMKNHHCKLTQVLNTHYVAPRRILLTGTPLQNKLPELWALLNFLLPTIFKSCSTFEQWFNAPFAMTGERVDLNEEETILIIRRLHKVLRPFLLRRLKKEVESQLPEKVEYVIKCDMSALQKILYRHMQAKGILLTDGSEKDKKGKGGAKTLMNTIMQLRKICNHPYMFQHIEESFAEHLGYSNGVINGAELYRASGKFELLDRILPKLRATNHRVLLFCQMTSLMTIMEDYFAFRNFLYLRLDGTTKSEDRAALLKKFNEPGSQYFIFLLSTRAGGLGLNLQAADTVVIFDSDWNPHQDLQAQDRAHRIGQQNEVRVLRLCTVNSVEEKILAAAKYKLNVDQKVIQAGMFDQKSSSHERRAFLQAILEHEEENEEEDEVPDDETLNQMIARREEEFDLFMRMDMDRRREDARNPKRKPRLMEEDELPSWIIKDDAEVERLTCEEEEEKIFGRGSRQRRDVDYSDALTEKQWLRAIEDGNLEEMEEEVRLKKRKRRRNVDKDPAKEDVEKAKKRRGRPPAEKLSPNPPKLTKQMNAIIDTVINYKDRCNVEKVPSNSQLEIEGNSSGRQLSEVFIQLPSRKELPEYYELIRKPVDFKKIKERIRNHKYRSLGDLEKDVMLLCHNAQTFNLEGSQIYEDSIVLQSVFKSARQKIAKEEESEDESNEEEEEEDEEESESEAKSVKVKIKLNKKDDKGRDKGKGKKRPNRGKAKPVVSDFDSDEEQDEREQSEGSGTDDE
Summary of the method: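 HeLa cells stably expressing HiBiT-tagged BRM were treated for 24 h, then lysed with LgBiT-containing Nano-Glo reagent and luminescence read. % degradation scaled between DMSO (high control) and 2 μM reference BRM/BRG1 degrader (low control).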

T1 sequence (P51532 whole entry): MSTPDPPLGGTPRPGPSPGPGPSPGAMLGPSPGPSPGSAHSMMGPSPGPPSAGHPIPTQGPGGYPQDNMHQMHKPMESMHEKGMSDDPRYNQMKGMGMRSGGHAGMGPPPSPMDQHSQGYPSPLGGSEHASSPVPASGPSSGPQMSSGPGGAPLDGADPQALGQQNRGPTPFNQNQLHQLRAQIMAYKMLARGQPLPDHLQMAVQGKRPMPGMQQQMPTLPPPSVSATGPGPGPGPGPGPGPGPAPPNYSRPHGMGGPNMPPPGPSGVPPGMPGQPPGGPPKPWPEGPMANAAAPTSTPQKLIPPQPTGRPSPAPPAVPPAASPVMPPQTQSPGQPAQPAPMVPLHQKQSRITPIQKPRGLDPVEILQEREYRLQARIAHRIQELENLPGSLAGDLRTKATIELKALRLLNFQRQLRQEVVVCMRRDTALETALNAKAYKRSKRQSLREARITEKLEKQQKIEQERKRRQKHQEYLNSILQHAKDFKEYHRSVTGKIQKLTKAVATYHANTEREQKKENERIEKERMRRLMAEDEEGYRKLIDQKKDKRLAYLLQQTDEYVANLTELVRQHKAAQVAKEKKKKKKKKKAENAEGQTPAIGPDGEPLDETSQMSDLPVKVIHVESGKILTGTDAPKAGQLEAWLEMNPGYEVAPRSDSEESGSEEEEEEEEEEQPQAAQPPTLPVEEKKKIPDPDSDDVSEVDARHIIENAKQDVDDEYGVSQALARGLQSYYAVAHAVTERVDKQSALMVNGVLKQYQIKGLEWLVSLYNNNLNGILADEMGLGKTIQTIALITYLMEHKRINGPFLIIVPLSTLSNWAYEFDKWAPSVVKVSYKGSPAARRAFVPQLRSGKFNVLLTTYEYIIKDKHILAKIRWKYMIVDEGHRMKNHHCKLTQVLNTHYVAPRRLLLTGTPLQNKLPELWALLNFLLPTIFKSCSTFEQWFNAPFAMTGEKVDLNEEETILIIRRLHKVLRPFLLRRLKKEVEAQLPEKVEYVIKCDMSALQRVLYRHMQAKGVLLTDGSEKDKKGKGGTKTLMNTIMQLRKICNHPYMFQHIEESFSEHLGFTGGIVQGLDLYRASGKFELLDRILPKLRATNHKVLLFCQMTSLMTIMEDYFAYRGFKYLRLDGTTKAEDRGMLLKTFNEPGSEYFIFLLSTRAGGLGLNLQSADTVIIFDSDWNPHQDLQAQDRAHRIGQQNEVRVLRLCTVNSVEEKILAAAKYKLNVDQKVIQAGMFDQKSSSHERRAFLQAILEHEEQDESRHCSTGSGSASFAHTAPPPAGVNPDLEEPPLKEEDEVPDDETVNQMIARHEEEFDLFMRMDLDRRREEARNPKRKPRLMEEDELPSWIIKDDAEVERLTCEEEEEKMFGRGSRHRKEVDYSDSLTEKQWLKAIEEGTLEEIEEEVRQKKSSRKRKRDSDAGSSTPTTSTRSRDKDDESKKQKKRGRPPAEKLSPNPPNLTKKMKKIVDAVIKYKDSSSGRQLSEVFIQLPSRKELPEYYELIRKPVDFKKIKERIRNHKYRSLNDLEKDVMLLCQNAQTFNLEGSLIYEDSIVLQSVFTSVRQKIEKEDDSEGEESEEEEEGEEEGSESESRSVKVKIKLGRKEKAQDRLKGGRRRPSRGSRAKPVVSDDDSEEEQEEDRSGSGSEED

| SMILES | DC50 (HiBit-BRG1) | Dmax (HiBit-BRG1) | DC50 (HiBiT-BRM) | BRM HiBit Degradation Maximum (%) (HiBiT-BRM) |
| --- | --- | --- | --- | --- |
| Cc1ncsc1-c1ccc(CNC(=O)[C@@H]2C[C@@H](O)CN2C(=O)[C@@H](NC(=O)CCN2CCC(C(=O)NCc3ccc(CCOc4cc(-c5ccccc5O)nnc4N)cc3)CC2)C(C)(C)C)cc1 [Compound 180, N-(4-(2-((3-amino-6-(2-hydroxyphenyl)pyridazin-4-yl)oxy)ethyl)benzyl)-1-(3-(((S)-1-((2S,4R)-4-hydroxy-2-((4-(4-methylthiazol-5-yl)benzyl)carbamoyl)pyrrolidin-1-yl)-3,3-dimethyl-1-oxobutan-2-yl)amino)-3-oxopropyl)piperidine-4-carboxamide] | > 1 µM | < 50% | > 1 µM | B (“B” indicates maximum degradation ≥50%) |
| Cc1ncsc1-c1ccc(CNC(=O)[C@@H]2C[C@@H](O)CN2C(=O)[C@@H](NC(=O)CCN2CC(C(=O)NCc3ccc(CCOc4cc(-c5ccccc5O)nnc4N)cc3)C2)C(C)(C)C)cc1 [Compound 182, (2S,4R)-1-[(2S)-2-[3-[3-([[4-(2-[[3-amino-6-(2-hydroxyphenyl)pyridazin-4-yl]oxy]ethyl)phenyl]methyl]carbamoyl)azetidin-1-yl]propanamido]-3,3-dimethylbutanoyl]-4-hydroxy-N-[[4-(4-methyl-1,3-thiazol-5-yl)phenyl]methyl]pyrrolidine-2-carboxamide] | > 1 µM | < 50% | > 1 µM | C (“C” indicates maximum degradation <50%) |
| Nc1nnc(-c2ccccc2O)cc1OCCc1ccc(C(=O)NCCCCCCCC(=O)NCc2ccc(S(=O)(=O)Nc3cccc4c(Cl)c[nH]c34)cc2)cc1 [Compound 25, 8-[[4-(2-[[3-amino-6-(2-hydroxyphenyl)pyridazin-4-yl]oxy]ethyl)phenyl]formamido]-N-([4-[(3-chloro-1H-indol-7-yl)sulfamoyl]phenyl]methyl)octanamide] | > 1 µM | < 50% | > 1 µM | C (“C” indicates maximum degradation <50%) |
| Nc1nnc(-c2ccccc2O)cc1OCCc1ccc(CNC(=O)CCCCNc2ccc3c(c2)C(=O)N(C2CCC(=O)NC2=O)C3)cc1 (stereo not drawn) [Compound 135, N-[[4-(2-[[3-amino-6-(2-hydroxyphenyl)pyridazin-4-yl]oxy]ethyl)phenyl]methyl]-5-[[2-(2,6-dioxopiperidin-3-yl)-3-oxo-1H-isoindol-5-yl]amino]pentanamide] | > 1 µM | < 50% | > 1 µM | C (“C” indicates maximum degradation <50%) |
| Cc1ncsc1-c1ccc(CNC(=O)[C@@H]2C[C@@H](O)CN2C(=O)[C@@H](NC(=O)CCCCCCCCCCCCCCCC(=O)NCc2ccc(CCOc3cc(-c4ccccc4O)nnc3N)cc2)C(C)C)cc1 [Compound 173, N1-(4-(2-((3-amino-6-(2-hydroxyphenyl)pyridazin-4-yl)oxy)ethyl)benzyl)-N17-((S)-1-((2S,4R)-4-hydroxy-2-((4-(4-methylthiazol-5-yl)benzyl)carbamoyl)pyrrolidin-1-yl)-3-methyl-1-oxobutan-2-yl)heptadecanediamide] | > 1 µM | < 50% | > 0.1 µM | B (“B” indicates maximum degradation ≥50%) |
| Nc1nnc(-c2ccccc2O)cc1N1CCN(CCNC(=O)CCCOc2cccc3c2C(=O)N(C2CCC(=O)NC2=O)C3=O)CC1 (stereo not drawn) [Compound 84, N-(2-(4-(3-amino-6-(2-hydroxyphenyl)pyridazin-4-yl)piperazin-1-yl)ethyl)-4-((2-(2,6-dioxopiperidin-3-yl)-1,3-dioxoisoindolin-4-yl)oxy)butanamide] | > 1 µM | < 50% | > 1 µM | C (“C” indicates maximum degradation <50%) |
| Cc1ncsc1-c1ccc(CNC(=O)[C@@H]2C[C@@H](O)CN2C(=O)[C@@H](NC(=O)CCCCCCCCCNCc2ccc(CCNc3cc(-c4ccccc4O)nnc3N)cc2)C(C)(C)C)cc1 [Compound 139, (2S,4R)-1-((S)-2-(10-((4-(2-((3-amino-6-(2-hydroxyphenyl)pyridazin-4-yl)amino)ethyl)benzyl)amino)decanamido)-3,3-dimethylbutanoyl)-4-hydroxy-N-(4-(4-methylthiazol-5-yl)benzyl)pyrrolidine-2-carboxamide] | > 1 µM | > 50% | > 0.1 µM | A (“A” indicates maximum degradation ≥75%) |
| Nc1nnc(-c2ccccc2O)cc1N1CCN(CCNC(=O)CCCCCCCCNc2cccc3c2C(=O)N(C2CCC(=O)NC2=O)C3=O)CC1 (stereo not drawn) [Compound 97, N-(2-[4-[3-amino-6-(2-hydroxyphenyl)pyridazin-4-yl]piperazin-1-yl]ethyl)-9-[[2-(2,6-dioxopiperidin-3-yl)-1,3-dioxoisoindol-4-yl]amino]nonanamide] | > 1 µM | < 50% | > 1 µM | C (“C” indicates maximum degradation <50%) |
| Nc1nnc(-c2cccc(Cl)c2O)cc1OCCc1ccc(CNCCCCCOc2cccc3c2C(=O)N(C2CCC(=O)NC2=O)C3=O)cc1 (stereo not drawn) [Compound 124, 4-((5-((4-(2-((3-amino-6-(3-chloro-2-hydroxyphenyl)pyridazin-4-yl)oxy)ethyl)benzyl)amino)pentyl)oxy)-2-(2,6-dioxopiperidin-3-yl)isoindoline-1,3-dione] | > 1 µM | < 50% | > 1 µM | C (“C” indicates maximum degradation <50%) |
| Nc1nnc(-c2ccccc2O)cc1OCCc1ccc(CNC(=O)CCCCCCCCCNc2ccc3c(c2)C(=O)N(C2CCC(=O)NC2=O)C3=O)cc1 (stereo not drawn) [Compound 75, N-(4-(2-((3-amino-6-(2-hydroxyphenyl)pyridazin-4-yl)oxy)ethyl)benzyl)-10-((2-(2,6-dioxopiperidin-3-yl)-1,3-dioxoisoindolin-5-yl)amino)decanamide] | > 1 µM |  | > 1 µM | C (“C” indicates maximum degradation <50%) |

More lines, main results first:

| DC50 (HiBit-BRG1) | Dmax (HiBit-BRG1) | DC50 (HiBiT-BRM) | SMILES | BRM HiBit Degradation Maximum (%) (HiBiT-BRM) |
| --- | --- | --- | --- | --- |
| > 1 µM | < 50% | > 1 µM | CN(CCCCCOc1ccc2c(c1)C(=O)N(C1CCC(=O)NC1=O)C2=O)Cc1ccc(CCOc2cc(-c3ccccc3O)nnc2N)cc1 (stereo not drawn) [Compound 148, 5-((5-((4-(2-((3-amino-6-(2-hydroxyphenyl)pyridazin-4-yl)oxy)ethyl)benzyl)(methyl)amino)pentyl)oxy)-2-(2,6-dioxopiperidin-3-yl)isoindoline-1,3-dioneformate] | C (“C” indicates maximum degradation <50%) |
| > 0.1 µM | > 75% | > 0.01 µM | Cc1ncsc1-c1ccc([C@H](C)NC(=O)[C@@H]2C[C@@H](O)CN2C(=O)[C@@H](c2cc(OCCN3CC4=C(C3)CN(C(=O)c3ccc(CCOc5cc(-c6ccccc6O)nnc5N)cc3)C4)no2)C(C)C)cc1 [Compound 213, (2S,4R)-1-((R)-2-(3-(2-(5-(4-(2-((3-amino-6-(2-hydroxyphenyl)pyridazin-4-yl)oxy)ethyl)benzoyl)-3,4,5,6-tetrahydropyrrolo[3,4-c]pyrrol-2(1H)-yl)ethoxy)isoxazol-5-yl)-3-methylbutanoyl)-4-hydroxy-N-((S)-1-(4-(4-methylthiazol-5-yl)phenyl)ethyl)pyrrolidine-2-carboxamide] | A (“A” indicates maximum degradation ≥75%) |
| > 1 µM | < 50% | > 1 µM | Nc1nnc(-c2ccccc2O)cc1OCCc1ccc(C(=O)NCCCCCCCCNc2ccc3c(c2)C(=O)N(C2CCC(=O)NC2=O)C3=O)cc1 (stereo not drawn) [Compound 64, 4-(2-[[3-amino-6-(2-hydroxyphenyl)pyridazin-4-yl]oxy]ethyl)-N-(8-[[2-(2,6-dioxopiperidin-3-yl)-1,3-dioxoisoindol-5-yl]amino]octyl)benzamide] | C (“C” indicates maximum degradation <50%) |
| > 1 µM | < 50% | > 1 µM | Cc1ncsc1-c1ccc(CNC(=O)[C@@H]2C[C@@H](O)CN2C(=O)[C@@H](NC(=O)CCN2C[C@H]3CN(CCC(=O)NCc4ccc(CCOc5cc(-c6ccccc6O)nnc5N)cc4)C[C@H]3C2)C(C)(C)C)cc1 [Compound 235, (2S,4R)-1-((2S)-2-(3-(5-(3-((4-(2-((3-amino-6-(2-hydroxyphenyl)pyridazin-4-yl)oxy)ethyl)benzyl)amino)-3-oxopropyl)hexahydropyrrolo[3,4-c]pyrrol-2(1H)-yl)propanamido)-3,3-dimethylbutanoyl)-4-hydroxy-N-(4-(4-methylthiazol-5-yl)benzyl)pyrrolidine-2-carboxamide] | C (“C” indicates maximum degradation <50%) |
| > 0.1 µM | > 75% | > 0.01 µM | Cc1ncsc1-c1ccc([C@H](C)NC(=O)[C@@H]2C[C@@H](O)CN2C(=O)[C@@H](c2cc(OCCN3C[C@@H]4[C@H](C3)[C@H]4C(=O)NCc3ccc(CCOc4cc(-c5ccccc5O)nnc4N)cc3)no2)C(C)C)cc1 [Compound 194] | A (“A” indicates maximum degradation ≥75%) |
| > 0.1 µM | > 50% | > 0.01 µM | Cc1ncsc1-c1ccc([C@H](C)NC(=O)[C@@H]2C[C@@H](O)CN2C(=O)[C@@H](c2cc(OCCN3CC(OC4CCN(C(=O)c5ccc(CCOc6cc(-c7ccccc7O)nnc6N)cc5)CC4)C3)no2)C(C)C)cc1 [Compound 237, (2S,4R)-1-((R)-2-(3-(2-(3-((1-(4-(2-((3-amino-6-(2-hydroxyphenyl)pyridazin-4-yl)oxy)ethyl)benzoyl)piperidin-4-yl)oxy)azetidin-1-yl)ethoxy)isoxazol-5-yl)-3-methylbutanoyl)-4-hydroxy-N-((S)-1-(4-(4-methylthiazol-5-yl)phenyl)ethyl)pyrrolidine-2-carboxamide] | A (“A” indicates maximum degradation ≥75%) |

Source: US20230150974A1 (Foghorn Therapeutics Inc., priority 2020, published 2023)
